According to patent USRE48461E1, “Modulation of androgen receptor expression” (Ionis Pharmaceuticals, Inc., priority 2012, dated 2021):

Assays:
LNCaP cells = experiment: LNCaP cell proliferation, ASO in combination with MDV3100 (Example 20); type: cell-based, human; details: for Proliferation (% untreated control) in LNCaP without MDV-3100: 5 days
Method: LNCaP cells were plated at 1,000 cells per well. […] ISIS 549148 was included as a negative control. […] After a treatment period of 5 days, the proliferative capacity of the cancer cells was measured with CellTiter 96® AQueous One or CellTiter-Glo® Solution Cell Proliferation kit (Promega), following the manufacturer's instructions. […]

22RV1 cells = experiment: 22RV1 cell proliferation with/without DHT (MTT); type: cell-based, human; details: RNAiMAX, 5 days
Method: 22RV1cells were plated at 1,500 cells per well. […] Separate sets of cells, also treated with each of the antisense oligonucleotides, were treated with DHT added on day 1 at a final concentration of 1 nM. After a treatment period of 5 days, the proliferative ability of the cancer cells was measured using the standard MTT assay. Results are presented in Table 69 as percent inhibition of proliferation, relative to non-treated cells.

PSA mRNA = experiment: PSA expression in LNCaP cells (complete, CSS+DHT medium); type: cell-based, human; details: for Percent inhibition of PSA expression in LNCaP cells cultured in CSS + DHT medium: CSS + DHT (1 nM) medium, 48 hrs; for Percent inhibition of PSA expression in LNCaP cells cultured in complete medium: 48 hours
Method: Cells were plated at 1,000 cells per well. […] ISIS 549148 was included as a negative control. […] After an incubation period of 48 hours, RNA levels of AR, PSA and TMPRSS2 were measured.
Cells were plated at 2,000 cells per well and cultured in phenol red-free RPMI supplemented with 5% charcoal stripped serum (Gibco) media for 16 hours. […] ISIS 549148 was included as a negative control. […] After an incubation period of 4 hrs, DHT was added to the medium to a final concentration of 1 nM as indicated. RNAs were collected 48 hrs later and levels of AR, PSA and TMPRSS2 were measured. In the absence of DHT, AR expression in LNCaP cells was 95%, PSA expression was 7% and TMPRSS2 expression was 24% compared to the untreated control.

TMPRSS2 mRNA = experiment: TMPRSS2 expression in C4-2B cells (Example 30); type: cell-based, human; details: 48 hrs
Method: Cells were plated at 1,000 cells per well. […] ISIS 549148 was included as a negative control. […] After an incubation period of 48 hrs, RNA levels of AR, PSA and TMPRSS2 were measured.
Cells were plated at 2,000 cells per well and cultured in CSS media with 1 nM DHT. […] ISIS 549148 was included as a negative control. […] After an incubation period of 48 hrs, RNA levels of AR, PSA and TMPRSS2 were measured. In the absence of DHT, AR expression in C4-2 cells was 188%, PSA expression was 43% and TMPRSS2 expression was 27% compared to the untreated control.

MDA-MB-453 tumor = experiment: Tumor volume in MDA-MB-453 breast cancer orthotopic model; type: in vivo, NSG mice; details: Study 2, MDA-MB-453 model, NSG mice, 50 mg/kg s.c. 5 days per week for 2 weeks
AR mRNA = AR mRNA levels in LMR20 cells (with/without DHT or R1881); type: cell-based, human; details: for AR mRNA levels (% baseline value) after treatment with DHT / AR mRNA levels (% baseline value) after treatment with R1881 / AR mRNA levels (% baseline value) of cells without AR agonist treatment: LMR20 cells; for AR mRNA levels (% baseline value) after treatment with DHT: DHT 10 nM 72 hrs; for AR mRNA levels (% baseline value) after treatment with R1881: R1881 10 nM 72 hrs; for AR mRNA levels (% baseline value) of cells without AR agonist treatment: no AR agonist
Method: LMR20 cells were plated at 1,500 cells per well in phenol red-free medium with CSS.

GGCTACTACGCCGTCA (3-10-3 (S)-cEt gapmer, chemistry not fully specified) [ISIS 549148, reference compound]
Proliferation (% untreated control) in LNCaP with 0.08 μM MDV-3100 (LNCaP cells; ASO dose 0.04 μM + 0.08 μM MDV-3100): 101 % untreated control
Proliferation (% untreated control) in LNCaP with 0.4 μM MDV-3100 (LNCaP cells; ASO dose 0.04 μM + 0.4 μM MDV-3100): 57 % untreated control
Proliferation (% untreated control) in LNCaP with 2.0 μM MDV-3100 (LNCaP cells; ASO dose 0.04 μM + 2.0 μM MDV-3100): 42 % untreated control
Proliferation (% untreated control) in LNCaP with […] MDV-3100 (LNCaP cells; ASO dose 0.04 μM + […] MDV-3100): 86 % untreated control
Proliferation (% untreated control) in LNCaP without MDV-3100 (LNCaP cells; ASO dose 0.04 μM): 101 % untreated control
Proliferation (% untreated control) in LNCaP with 0.08 μM MDV-3100 (LNCaP cells; ASO dose 0.08 μM + 0.08 μM MDV-3100): 93 % untreated control
Proliferation (% untreated control) in LNCaP with 0.4 μM MDV-3100 (LNCaP cells; ASO dose 0.08 μM + 0.4 μM MDV-3100): 65 % untreated control
Proliferation (% untreated control) in LNCaP with 2.0 μM MDV-3100 (LNCaP cells; ASO dose 0.08 μM + 2.0 μM MDV-3100): 39 % untreated control
Proliferation (% untreated control) in LNCaP with […] MDV-3100 (LNCaP cells; ASO dose 0.08 μM + […] MDV-3100): 106 % untreated control
Proliferation (% untreated control) in LNCaP without MDV-3100 (LNCaP cells; ASO dose 0.08 μM): 104 % untreated control
Proliferation (% untreated control) in LNCaP with 0.08 μM MDV-3100 (LNCaP cells; ASO dose 0.2 μM + 0.08 μM MDV-3100): 89 % untreated control
Proliferation (% untreated control) in LNCaP with 0.4 μM MDV-3100 (LNCaP cells; ASO dose 0.2 μM + 0.4 μM MDV-3100): 50 % untreated control
Proliferation (% untreated control) in LNCaP with 2.0 μM MDV-3100 (LNCaP cells; ASO dose 0.2 μM + 2.0 μM MDV-3100): 41 % untreated control
Proliferation (% untreated control) in LNCaP with […] MDV-3100 (LNCaP cells; ASO dose 0.2 μM + […] MDV-3100): 83 % untreated control
Proliferation (% untreated control) in LNCaP without MDV-3100 (LNCaP cells; ASO dose 0.2 μM): 91 % untreated control
Proliferation (% untreated control) in LNCaP with 0.08 μM MDV-3100 (LNCaP cells; ASO dose 1.0 μM + 0.08 μM MDV-3100): 90 % untreated control
Proliferation (% untreated control) in LNCaP with 0.4 μM MDV-3100 (LNCaP cells; ASO dose 1.0 μM + 0.4 μM MDV-3100): 48 % untreated control
Proliferation (% untreated control) in LNCaP with 2.0 μM MDV-3100 (LNCaP cells; ASO dose 1.0 μM + 2.0 μM MDV-3100): 32 % untreated control
Proliferation (% untreated control) in LNCaP with […] MDV-3100 (LNCaP cells; ASO dose 1.0 μM + […] MDV-3100): 59 % untreated control
Proliferation (% untreated control) in LNCaP without MDV-3100 (LNCaP cells; ASO dose 1.0 μM): 82 % untreated control
Percent inhibition of 22RV1 cell proliferation (22RV1 cells; +DHT (1 nM), ASO 1.34 nM): 0%
Percent inhibition of 22RV1 cell proliferation (22RV1 cells; +DHT (1 nM), ASO 4.0 nM): 0%
Percent inhibition of 22RV1 cell proliferation (22RV1 cells; +DHT (1 nM), ASO 13.4 nM): 3%
Percent inhibition of 22RV1 cell proliferation (22RV1 cells; +DHT (1 nM), ASO 40.0 nM): 0%
Percent inhibition of 22RV1 cell proliferation (22RV1 cells; −DHT, ASO 1.34 nM): 0%
Percent inhibition of 22RV1 cell proliferation (22RV1 cells; −DHT, ASO 4.0 nM): 0%
Percent inhibition of 22RV1 cell proliferation (22RV1 cells; −DHT, ASO 13.4 nM): 4%
Percent inhibition of 22RV1 cell proliferation (22RV1 cells; −DHT, ASO 40.0 nM): 0%
Percent inhibition of PSA expression in LNCaP cells cultured in CSS + DHT medium (PSA mRNA; 0.04 μM): 0%
Percent inhibition of PSA expression in LNCaP cells cultured in CSS + DHT medium (PSA mRNA; 0.2 μM): 8%
Percent inhibition of PSA expression in LNCaP cells cultured in CSS + DHT medium (PSA mRNA; 1 μM): 0%
Percent inhibition of PSA expression in LNCaP cells cultured in CSS + DHT medium (PSA mRNA; 5.0 μM): 9%
Percent inhibition of PSA expression in LNCaP cells cultured in complete medium (PSA mRNA; 0.04 μM): 0%
Percent inhibition of PSA expression in LNCaP cells cultured in complete medium (PSA mRNA; 0.2 μM): 0%
Percent inhibition of PSA expression in LNCaP cells cultured in complete medium (PSA mRNA; 1 μM): 0%
Percent inhibition of PSA expression in LNCaP cells cultured in complete medium (PSA mRNA; 5.0 μM): 0%
Percent inhibition of TMPRSS2 expression (TMPRSS2 mRNA; CSS + DHT medium, 0.04 μM): 0%
Percent inhibition of TMPRSS2 expression (TMPRSS2 mRNA; CSS + DHT medium, 0.2 μM): 0%
Percent inhibition of TMPRSS2 expression (TMPRSS2 mRNA; CSS + DHT medium, 1 μM): 0%
Percent inhibition of TMPRSS2 expression (TMPRSS2 mRNA; CSS + DHT medium, 5.0 μM): 3%
Percent inhibition of TMPRSS2 expression (TMPRSS2 mRNA; complete medium, 0.04 μM): 0%
Percent inhibition of TMPRSS2 expression (TMPRSS2 mRNA; complete medium, 0.2 μM): 2%
Percent inhibition of TMPRSS2 expression (TMPRSS2 mRNA; complete medium, 1 μM): 4%
Percent inhibition of TMPRSS2 expression (TMPRSS2 mRNA; complete medium, 5.0 μM): 0%
Tumor volumes (MDA-MB-453 tumor; Day 0): 148
Tumor volumes (MDA-MB-453 tumor; Day 8): 303
Tumor volumes (MDA-MB-453 tumor; Day 13): 312
Tumor volumes (MDA-MB-453 tumor; Day 20): 365
Tumor volumes (MDA-MB-453 tumor; Day 23): 413
Tumor volumes (MDA-MB-453 tumor; Day 27): 490
Tumor volumes (MDA-MB-453 tumor; Day 29): 550

CNC(=O)c1ccc(N2C(=S)N(c3ccc(C#N)c(C(F)(F)F)c3)C(=O)C2(C)C)cc1F [MDV3100, 4-(3-(4-cyano-3-(trifluoromethyl)phenyl)-5,5-dimethyl-4-oxo-2-thioxoimidazolidin-1-yl)-2-fluoro-N-methylbenzamide, reference compound]
AR mRNA levels (% baseline value) after treatment with DHT (AR mRNA; ASO 0.04 μM): 105 % baseline value
AR mRNA levels (% baseline value) after treatment with DHT (AR mRNA; ASO 0.20 μM): 124 % baseline value
AR mRNA levels (% baseline value) after treatment with DHT (AR mRNA; ASO 1.0 μM): 110 % baseline value
AR mRNA levels (% baseline value) after treatment with DHT (AR mRNA; ASO 5.0 μM): 143 % baseline value
AR mRNA levels (% baseline value) after treatment with R1881 (AR mRNA; ASO 0.04 μM): 94 % baseline value
AR mRNA levels (% baseline value) after treatment with R1881 (AR mRNA; ASO 0.20 μM): 107 % baseline value
AR mRNA levels (% baseline value) after treatment with R1881 (AR mRNA; ASO 1.0 μM): 115 % baseline value
AR mRNA levels (% baseline value) of cells without AR agonist treatment (AR mRNA; ASO 0.04 μM): 106 % baseline value
AR mRNA levels (% baseline value) of cells without AR agonist treatment (AR mRNA; ASO 0.20 μM): 101 % baseline value
AR mRNA levels (% baseline value) of cells without AR agonist treatment (AR mRNA; ASO 1.0 μM): 99 % baseline value
AR mRNA levels (% baseline value) of cells without AR agonist treatment (AR mRNA; ASO 5.0 μM): 92 % baseline value
AR mRNA levels in LMR20 cells (AR mRNA; with or without DHT/R1881): increased the levels of AR mRNA in cells treated with AR agonist
inhibition at 0.08 µM (LNCaP cells; Homo sapiens, LNCaP, read-out: inhibited proliferation, MDV3100 with control oligonucleotide ISIS 549148): 7%
Percent inhibition of PSA expression in LNCaP cells cultured in CSS + DHT medium (PSA mRNA; 0.04 μM): 15%
Percent inhibition of PSA expression in LNCaP cells cultured in CSS + DHT medium (PSA mRNA; 0.2 μM): 38%
Percent inhibition of PSA expression in LNCaP cells cultured in CSS + DHT medium (PSA mRNA; 1 μM): 81%
Percent inhibition of PSA expression in LNCaP cells cultured in CSS + DHT medium (PSA mRNA; 5.0 μM): 82%
Percent inhibition of PSA expression in LNCaP cells cultured in complete medium (PSA mRNA; 0.04 μM): 0%
Percent inhibition of PSA expression in LNCaP cells cultured in complete medium (PSA mRNA; 0.2 μM): 35%
Percent inhibition of PSA expression in LNCaP cells cultured in complete medium (PSA mRNA; 1 μM): 84%
Percent inhibition of PSA expression in LNCaP cells cultured in complete medium (PSA mRNA; 5.0 μM): 87%
Percent inhibition of TMPRSS2 expression (TMPRSS2 mRNA; CSS + DHT medium, 0.04 μM): 0%
Percent inhibition of TMPRSS2 expression (TMPRSS2 mRNA; CSS + DHT medium, 0.2 μM): 11%
Percent inhibition of TMPRSS2 expression (TMPRSS2 mRNA; CSS + DHT medium, 1 μM): 48%
Percent inhibition of TMPRSS2 expression (TMPRSS2 mRNA; CSS + DHT medium, 5.0 μM): 66%
Percent inhibition of TMPRSS2 expression (TMPRSS2 mRNA; complete medium, 0.04 μM): 3%
Percent inhibition of TMPRSS2 expression (TMPRSS2 mRNA; complete medium, 0.2 μM): 24%
Percent inhibition of TMPRSS2 expression (TMPRSS2 mRNA; complete medium, 1 μM): 55%
Percent inhibition of TMPRSS2 expression (TMPRSS2 mRNA; complete medium, 5.0 μM): 71%
